According to PubChem BioAssay AID2060908 (Molecular Pharmacology Branch, DTP, NCI, 2025):

Test system: 186277-243-T-J2-PDC complex spheroids, viability
Assay: Anticancer human tumor 186277-243-T-J2-PDC patient-derived colon adenocarcinoma cell line growth inhibition [RAS]
Settings: for IC50: curve of first compound; for viability, T/C: stronger effect = lower value
Outline: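 Tumour cells grown as complex spheroids with HUVEC endothelial cells and mesenchymal stem cells, treated with RAS pathway inhibitor combinations. Each agent spans half-log steps from near clinical Cmax, or 10 microM where Cmax is unknown.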
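Further: spheroids exposed to compounds for 7 days before viability read.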

SMILES: CC1(O)CCCC1n1c(=O)c(C(F)F)cc2cnc(NC3CCN(S(C)(=O)=O)CC3)nc21 (stereo unspecified) + CCn1c(-c2cc(N3CCN(C)CC3)cnc2C(C)OC)c2c3cc(ccc31)-c1csc(n1)CC(NC(=O)C1CC1C)C(=O)N1CCCC(N1)C(=O)OCC(C)(C)C2
- IC50 (second compound 0.000949 µM): 3790 nM
- IC50 (second compound 0.003 µM): 1080 nM
- IC50 (second compound 0.00949 µM): < 31.6 nM
- IC50 (second compound 0.03 µM): < 31.6 nM
- IC50 (second compound 0.0949 µM): < 31.6 nM
- IC50 (second compound 0.3 µM): < 31.6 nM
- viability, T/C (second compound 0.000949 µM, first compound 0.0316 µM): 124%
- viability, T/C (second compound 0.000949 µM, first compound 0.1 µM): 104%
- viability, T/C (second compound 0.000949 µM, first compound 0.316 µM): 108%
- viability, T/C (second compound 0.000949 µM, first compound 1 µM): 86.7%
- viability, T/C (second compound 0.000949 µM, first compound 3.16 µM): 61.8%
- viability, T/C (second compound 0.000949 µM, first compound 10 µM): 1.35%
- viability, T/C (second compound 0.003 µM, first compound 0.0316 µM): 116%
- viability, T/C (second compound 0.003 µM, first compound 0.1 µM): 107%
- viability, T/C (second compound 0.003 µM, first compound 0.316 µM): 60.8%
- viability, T/C (second compound 0.003 µM, first compound 1 µM): 55.4%
- viability, T/C (second compound 0.003 µM, first compound 3.16 µM): 36.9%
- viability, T/C (second compound 0.003 µM, first compound 10 µM): 0.72%
- viability, T/C (second compound 0.00949 µM, first compound 0.0316 µM): 47.4%
- viability, T/C (second compound 0.00949 µM, first compound 0.1 µM): 41%
- viability, T/C (second compound 0.00949 µM, first compound 0.316 µM): 23.6%
- viability, T/C (second compound 0.00949 µM, first compound 1 µM): 20.1%
- viability, T/C (second compound 0.00949 µM, first compound 3.16 µM): 14%
- viability, T/C (second compound 0.00949 µM, first compound 10 µM): 0.4%
- viability, T/C (second compound 0.03 µM, first compound 0.0316 µM): 15.2%
- viability, T/C (second compound 0.03 µM, first compound 0.1 µM): 11.5%
- viability, T/C (second compound 0.03 µM, first compound 0.316 µM): 10.6%
- viability, T/C (second compound 0.03 µM, first compound 1 µM): 9.98%
- viability, T/C (second compound 0.03 µM, first compound 3.16 µM): 7.39%
- viability, T/C (second compound 0.03 µM, first compound 10 µM): 0.34%
- viability, T/C (second compound 0.0949 µM, first compound 0.0316 µM): 9.76%
- viability, T/C (second compound 0.0949 µM, first compound 0.1 µM): 7.17%
- viability, T/C (second compound 0.0949 µM, first compound 0.316 µM): 6.71%
- viability, T/C (second compound 0.0949 µM, first compound 1 µM): 6.53%
- viability, T/C (second compound 0.0949 µM, first compound 3.16 µM): 5.94%
- viability, T/C (second compound 0.0949 µM, first compound 10 µM): 0.31%
- viability, T/C (second compound 0.3 µM, first compound 0.0316 µM): 6.48%
- viability, T/C (second compound 0.3 µM, first compound 0.1 µM): 6.07%
- viability, T/C (second compound 0.3 µM, first compound 0.316 µM): 5.61%
- viability, T/C (second compound 0.3 µM, first compound 1 µM): 5.93%
- viability, T/C (second compound 0.3 µM, first compound 3.16 µM): 5.05%
- viability, T/C (second compound 0.3 µM, first compound 10 µM): 0.34%

SMILES: C=CC(=O)Nc1cc(Nc2nccc(-c3cn(C)c4ccccc34)n2)c(OC)cc1N(C)CCN(C)C + C=CC(=O)N1CCN(c2nc(OCC3CCCN3C)nc3c(F)c(-c4nc(N)cc(C)c4C(F)(F)F)c(Cl)cc23)C(C)C1
- IC50 (second compound 0.00316 µM): > 1000 nM
- IC50 (second compound 0.01 µM): > 1000 nM
- IC50 (second compound 0.0316 µM): > 1000 nM
- IC50 (second compound 0.1 µM): > 1000 nM
- IC50 (second compound 0.316 µM): > 1000 nM
- IC50 (second compound 1 µM): > 1000 nM
- viability, T/C (second compound 0.00316 µM, first compound 0.00316 µM): 82.3%
- viability, T/C (second compound 0.00316 µM, first compound 0.01 µM): 89.4%
- viability, T/C (second compound 0.00316 µM, first compound 0.0316 µM): 89.8%
- viability, T/C (second compound 0.00316 µM, first compound 0.1 µM): 80.5%
- viability, T/C (second compound 0.00316 µM, first compound 0.316 µM): 97.4%
- viability, T/C (second compound 0.00316 µM, first compound 1 µM): 110%
- viability, T/C (second compound 0.01 µM, first compound 0.00316 µM): 96.1%
- viability, T/C (second compound 0.01 µM, first compound 0.01 µM): 88.2%
- viability, T/C (second compound 0.01 µM, first compound 0.0316 µM): 89.8%
- viability, T/C (second compound 0.01 µM, first compound 0.1 µM): 94%
- viability, T/C (second compound 0.01 µM, first compound 0.316 µM): 107%
- viability, T/C (second compound 0.01 µM, first compound 1 µM): 77.3%
- viability, T/C (second compound 0.0316 µM, first compound 0.00316 µM): 84.8%
- viability, T/C (second compound 0.0316 µM, first compound 0.01 µM): 91.6%
- viability, T/C (second compound 0.0316 µM, first compound 0.0316 µM): 93.2%
- viability, T/C (second compound 0.0316 µM, first compound 0.1 µM): 96.1%
- viability, T/C (second compound 0.0316 µM, first compound 0.316 µM): 99.1%
- viability, T/C (second compound 0.0316 µM, first compound 1 µM): 97%
- viability, T/C (second compound 0.1 µM, first compound 0.00316 µM): 89.6%
- viability, T/C (second compound 0.1 µM, first compound 0.01 µM): 85%
- viability, T/C (second compound 0.1 µM, first compound 0.0316 µM): 79.5%
- viability, T/C (second compound 0.1 µM, first compound 0.1 µM): 109%
- viability, T/C (second compound 0.1 µM, first compound 0.316 µM): 126%
- viability, T/C (second compound 0.1 µM, first compound 1 µM): 86.8%
- viability, T/C (second compound 0.316 µM, first compound 0.00316 µM): 89.4%
- viability, T/C (second compound 0.316 µM, first compound 0.01 µM): 94.3%
- viability, T/C (second compound 0.316 µM, first compound 0.0316 µM): 103%
- viability, T/C (second compound 0.316 µM, first compound 0.1 µM): 86.5%
- viability, T/C (second compound 0.316 µM, first compound 0.316 µM): 130%
- viability, T/C (second compound 0.316 µM, first compound 1 µM): 98.9%
- viability, T/C (second compound 1 µM, first compound 0.00316 µM): 109%
- viability, T/C (second compound 1 µM, first compound 0.01 µM): 78.8%
- viability, T/C (second compound 1 µM, first compound 0.0316 µM): 91.9%
- viability, T/C (second compound 1 µM, first compound 0.1 µM): 104%
- viability, T/C (second compound 1 µM, first compound 0.316 µM): 82.1%
- viability, T/C (second compound 1 µM, first compound 1 µM): 81.2%

SMILES: CCc1c2c(nc3ccc(O)cc13)-c1cc3c(c(=O)n1C2)COC(=O)[C@]3(O)CC + C#Cc1c(F)ccc2cc(O)cc(-c3ncc4c(N5CC6CCC(C5)N6)nc(OCC56CCCN5CC(F)C6)nc4c3F)c12
- IC50 (second compound 0.0316 µM): 2.64 nM
- IC50 (second compound 0.1 µM): < 0.949 nM
- IC50 (second compound 0.316 µM): < 0.949 nM
- IC50 (second compound 1 µM): < 0.949 nM
- IC50 (second compound 3.16 µM): < 0.949 nM
- IC50 (second compound 10 µM): < 0.949 nM
- viability, T/C (second compound 0.0316 µM, first compound 0.000949 µM): 72.5%
- viability, T/C (second compound 0.0316 µM, first compound 0.003 µM): 40.5%
- viability, T/C (second compound 0.0316 µM, first compound 0.00949 µM): 36.7%
- viability, T/C (second compound 0.0316 µM, first compound 0.03 µM): 20.9%
- viability, T/C (second compound 0.0316 µM, first compound 0.0949 µM): 8.73%
- viability, T/C (second compound 0.0316 µM, first compound 0.3 µM): 5.87%
- viability, T/C (second compound 0.1 µM, first compound 0.000949 µM): 35.5%
- viability, T/C (second compound 0.1 µM, first compound 0.003 µM): 21.9%
- viability, T/C (second compound 0.1 µM, first compound 0.00949 µM): 16.6%
- viability, T/C (second compound 0.1 µM, first compound 0.03 µM): 12.2%
- viability, T/C (second compound 0.1 µM, first compound 0.0949 µM): 5.42%
- viability, T/C (second compound 0.1 µM, first compound 0.3 µM): 6.04%
- viability, T/C (second compound 0.316 µM, first compound 0.000949 µM): 14.3%
- viability, T/C (second compound 0.316 µM, first compound 0.003 µM): 14.1%
- viability, T/C (second compound 0.316 µM, first compound 0.00949 µM): 9.89%
- viability, T/C (second compound 0.316 µM, first compound 0.03 µM): 7.42%
- viability, T/C (second compound 0.316 µM, first compound 0.0949 µM): 5.03%
- viability, T/C (second compound 0.316 µM, first compound 0.3 µM): 3.68%
- viability, T/C (second compound 1 µM, first compound 0.000949 µM): 7.55%
- viability, T/C (second compound 1 µM, first compound 0.003 µM): 8.61%
- viability, T/C (second compound 1 µM, first compound 0.00949 µM): 8.45%
- viability, T/C (second compound 1 µM, first compound 0.03 µM): 6.92%
- viability, T/C (second compound 1 µM, first compound 0.0949 µM): 4.24%
- viability, T/C (second compound 1 µM, first compound 0.3 µM): 3.83%
- viability, T/C (second compound 3.16 µM, first compound 0.000949 µM): 8.46%
- viability, T/C (second compound 3.16 µM, first compound 0.003 µM): 7.85%
- viability, T/C (second compound 3.16 µM, first compound 0.00949 µM): 7.31%
- viability, T/C (second compound 3.16 µM, first compound 0.03 µM): 5.89%
- viability, T/C (second compound 3.16 µM, first compound 0.0949 µM): 4.55%
- viability, T/C (second compound 3.16 µM, first compound 0.3 µM): 2.75%
- viability, T/C (second compound 10 µM, first compound 0.000949 µM): 6.68%
- viability, T/C (second compound 10 µM, first compound 0.003 µM): 6.39%
- viability, T/C (second compound 10 µM, first compound 0.00949 µM): 6.05%
- viability, T/C (second compound 10 µM, first compound 0.03 µM): 5.42%
- viability, T/C (second compound 10 µM, first compound 0.0949 µM): 3.58%
- viability, T/C (second compound 10 µM, first compound 0.3 µM): 2.72%
